What was measured:
[1] = test system: pathogenic bacteria causing fruit blotch in watermelons; assay: In vitro bactericidal activity, fruit blotch in watermelons; type: cell-based, acidovorax; details: read-out: inhibitory rate; for inhibition at 1 ppm: dosage 1 ppm; for inhibition at 5 ppm: dosage 5 ppm
[2] = test system: pathogenic bacteria causing bacterial wilt in tobacco; assay: whole plant or invertebrate; type: cell-based, ralstonia; details: read-out: inhibitory rate
[3] = test system: pathogenic bacteria causing stem rot in sweet potatoes; assay: In vitro bactericidal activity, stem rot in sweet potatoes; type: cell-based, dikia; details: read-out: inhibitory rate; for inhibition at 1 ppm: dosage 1 ppm; for inhibition at 5 ppm: dosage 5 ppm
black shank in potatoes = assay: Living crops in vivo protective activity, potatoes (root irrigation); details: Solanum tuberosum, read-out: efficacy against black shank in potatoes; for pest or weed control at 5 ppm: dosage 5 ppm; for pest or weed control at 10 ppm: dosage 10 ppm
Protocol: Root irrigation was carried out on the potatoes for tests according to the designed concentration of the agents. The dosage for each plant was 200 mL and was kept consistent (also for the control). The black shank bacteria were inoculated on the second day after the application. The results were investigated according to the disease condition.

[4] = test system: pathogenic bacteria causing black shank in potatoes; assay: In vitro bactericidal activity, black shank in potatoes; type: cell-based; details: read-out: inhibitory rate; for inhibition at 1 ppm: dosage 1 ppm; for inhibition at 5 ppm: dosage 5 ppm
[5] = test system: stem rot in sweet potatoes; assay: whole plant or invertebrate; details: read-out: efficacy against stem rot in sweet potatoes
[6] = test system: bacterial wilt in tobacco; assay: whole plant or invertebrate; details: Nicotiana tabacum, read-out: efficacy against bacterial wilt in tobacco
[7] = test system: soft rot in Chinese cabbages; assay: whole plant or invertebrate; details: 48 h, read-out: efficacy against soft rot in Chinese cabbages
cucumber seedlings = assay: Safety for plant growth after application; type: in vivo; details: dosage 200 ppm
Procedure, shortened: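 Indoor potted cucumber seedlings were treated with the compounds, and crop safety was judged from effects on plant height growth rate, chlorophyll content and leaf area.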

[8] = test system: pathogenic bacteria causing fire blight in pears; assay: In vitro bactericidal activity, fire blight in pears; type: cell-based, erwinia; details: Erwinia, read-out: inhibitory rate; for inhibition at 1 ppm: dosage 1 ppm; for inhibition at 5 ppm: dosage 5 ppm
bacterial blight in rice = assay: whole plant or invertebrate; details: Oryza sativa, read-out: efficacy against bacterial blight in rice
[9] = test system: pathogenic bacteria causing bacterial angular leaf spot in cucumbers; assay: In vitro bactericidal activity, bacterial angular leaf spot in cucumbers; type: cell-based, pseudomonas; details: read-out: inhibitory rate; for inhibition at 1 ppm: dosage 1 ppm; for inhibition at 5 ppm: dosage 5 ppm
[10] = test system: pathogenic bacteria causing bacterial wilt in cassava; assay: organism not typed; type: cell-based; details: read-out: inhibitory rate
[11] = test system: pathogenic bacteria causing black rot in Chinese cabbages; assay: In vitro bactericidal activity, black rot in Chinese cabbages; type: cell-based, xanthomonas; details: Xanthomonas, read-out: inhibitory rate; for inhibition at 1 ppm: dosage 1 ppm; for inhibition at 5 ppm: dosage 5 ppm
[12] = test system: indoor potted cucumber seedlings; assay: Effect of improving growth and development of crops; type: in vivo; set-up: Rate of growth rate increase (%): concentration or dose not given beside the values; details: versus blank control; for Rate of chlorophyll content increase (%) / Rate of leaf area increase (%): 14 days after application; for Rate of growth rate increase (%): plant height 14 days after application; for Rate of leaf area increase (%): second leaf
Procedure, shortened: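 Readouts: rate of increase in height growth, leaf area and SPAD chlorophyll content. Measurements were made before compound application and again 14 days afterwards, with leaf area computed from second-leaf dimensions.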

[13] = test system: pathogenic bacteria causing bacterial blight in rice; assay: whole plant or invertebrate; type: cell-based, xanthomonas; details: read-out: inhibitory rate
[14] = test system: fruit blotch in watermelons; assay: whole plant or invertebrate; details: read-out: efficacy against fruit blotch in watermelons

Compound	inhibition at 1 ppm [1] [%]	inhibition at 5 ppm [1] [%]	inhibition at 1 ppm [2] [%]	inhibition at 5 ppm [2] [%]	inhibition at 1 ppm [3] [%]	inhibition at 5 ppm [3] [%]	pest or weed control at 5 ppm (black shank in potatoes) [%]	pest or weed control at 10 ppm (black shank in potatoes) [%]	inhibition at 1 ppm [4] [%]	inhibition at 5 ppm [4] [%]	pest or weed control at 5 ppm [5] [%]	pest or weed control at 10 ppm [5] [%]	pest or weed control at 5 ppm [6] [%]	pest or weed control at 10 ppm [6] [%]	pest or weed control at 5 ppm [7] [%]	pest or weed control at 10 ppm [7] [%]	safety for plant growth (discoloration, necrosis, wilt, malformation) (cucumber seedlings)	inhibition at 1 ppm [8] [%]	inhibition at 5 ppm [8] [%]	pest or weed control at 5 ppm (bacterial blight in rice) [%]	further results
CCOCCOC(=O)c1cn(C2CC2)c2cc(OC)c(F)cc2c1=O [Compound 326]	≥ 90	≥ 90	≥ 90	≥ 90	≥ 90	≥ 90	≥ 90	≥ 90	≥ 90	≥ 90	≥ 90	≥ 90	≥ 90	≥ 90	≥ 90	≥ 90	safe for plant growth	≥ 90	≥ 90	≥ 90	pest or weed control at 10 ppm (bacterial blight in rice): ≥ 90%; inhibition at 1 ppm [9]: ≥ 90%; inhibition at 5 ppm [9]: ≥ 90%; inhibition at 1 ppm [10]: ≥ 90%; inhibition at 5 ppm [10]: ≥ 90%; inhibition at 1 ppm [11]: ≥ 90%; inhibition at 5 ppm [11]: ≥ 90%; Rate of chlorophyll content increase (%) [12]: 15%; Rate of growth rate increase (%) [12]: 13%; Rate of leaf area increase (%) [12]: 15%; inhibition at 1 ppm [13]: ≥ 90%; inhibition at 5 ppm [13]: ≥ 90%; pest or weed control at 5 ppm [14]: ≥ 90%; pest or weed control at 10 ppm [14]: ≥ 90%
O=C(OCCCO)c1cn(C2CC2)c2cc(OCC(F)(F)F)c(F)cc2c1=O [Compound 329]	≥ 90	≥ 90	≥ 90	≥ 90	≥ 90	≥ 90	≥ 90	≥ 90	≥ 90	≥ 90	≥ 90	≥ 90	≥ 90	≥ 90	≥ 90	≥ 90	safe for plant growth	≥ 90	≥ 90	≥ 90	pest or weed control at 10 ppm (bacterial blight in rice): ≥ 90%; inhibition at 1 ppm [9]: ≥ 90%; inhibition at 5 ppm [9]: ≥ 90%; inhibition at 1 ppm [10]: ≥ 90%; inhibition at 5 ppm [10]: ≥ 90%; inhibition at 1 ppm [11]: ≥ 90%; inhibition at 5 ppm [11]: ≥ 90%; Rate of chlorophyll content increase (%) [12]: 17%; Rate of growth rate increase (%) [12]: 13%; Rate of leaf area increase (%) [12]: 17%; inhibition at 1 ppm [13]: ≥ 90%; inhibition at 5 ppm [13]: ≥ 90%; pest or weed control at 5 ppm [14]: ≥ 90%; pest or weed control at 10 ppm [14]: ≥ 90%
CCOCCOC(=O)c1cn(C2CC2)c2cc(OCC(F)(F)F)c(F)cc2c1=O [Compound 335]	≥ 90	≥ 90	≥ 90	≥ 90	≥ 90	≥ 90	≥ 90	≥ 90	≥ 90	≥ 90	≥ 90	≥ 90	≥ 90	≥ 90	≥ 90	≥ 90	safe for plant growth	≥ 90	≥ 90	≥ 90	pest or weed control at 10 ppm (bacterial blight in rice): ≥ 90%; inhibition at 1 ppm [9]: ≥ 90%; inhibition at 5 ppm [9]: ≥ 90%; inhibition at 1 ppm [10]: ≥ 90%; inhibition at 5 ppm [10]: ≥ 90%; inhibition at 1 ppm [11]: ≥ 90%; inhibition at 5 ppm [11]: ≥ 90%; Rate of chlorophyll content increase (%) [12]: 16%; Rate of growth rate increase (%) [12]: 12%; Rate of leaf area increase (%) [12]: 16%; inhibition at 1 ppm [13]: ≥ 90%; inhibition at 5 ppm [13]: ≥ 90%; pest or weed control at 5 ppm [14]: ≥ 90%; pest or weed control at 10 ppm [14]: ≥ 90%

Reference: patent US20250313533A1, “QUINOLINE CARBOXYLIC ACID ESTER COMPOUND AND PREPARATION METHOD AND USE THEREOF” (priority 2019, published 2025)
